Test results reported in US20070167631A1, “Novel herbicides” (priority 2003, published 2007).

How the values were obtained:
Assay type in all cases: in vivo
[1] = system: Amaranthus; test: Post-emergence herbicidal action (Example B2); settings: 250 g/ha, after about 18 days, rating scale 10=total damage, 0=no action
Excerpt: (§1) Monocotyledonous and dicotyledonous test plants are cultivated in a greenhouse in standard soil in plastic pots and, at the 4- to 6-leaf stage, are sprayed with an aqueous suspension of the test compounds of formula I prepared from a 25% wettable powder (Example F3, b) according to WO 97/34485) or with an emulsion of the test compounds of formula I prepared from a 25% emulsifiable concentrate (Example F1, c) according to WO 97/34485), corresponding to concentrations of 125 and 250 g of active ingredient per hectare (500 litres of water per ha). The test plants are then grown on in the greenhouse under optimum conditions. After a test duration of about 18 days, the test is evaluated in accordance with a scale of eleven ratings (10=total damage, 0=no action). Ratings of from 10 to 7 (especially from 10 to 8) indicate very good to good herbicidal action.

[2] = system: Chenopodium; test: Post-emergence herbicidal action (Example B2); settings: 250 g/ha, after about 18 days, rating scale 10=total damage, 0=no action
Excerpt: as §1

[3] = system: Echinochloa; test: Post-emergence herbicidal action (Example B2); settings: 250 g/ha, after about 18 days, rating scale 10=total damage, 0=no action
Excerpt: as §1

[4] = system: Euphorbia; test: Post-emergence herbicidal action (Example B2); settings: 250 g/ha, after about 18 days, rating scale 10=total damage, 0=no action
Excerpt: as §1

[5] = system: Panicum; test: Post-emergence herbicidal action (Example B2); settings: 250 g/ha, after about 18 days, rating scale 10=total damage, 0=no action
Excerpt: as §1

[6] = system: Stellaria; test: Post-emergence herbicidal action (Example B2); settings: 250 g/ha, after about 18 days, rating scale 10=total damage, 0=no action
Excerpt: as §1

[7] = system: Xanthium; test: Post-emergence herbicidal action (Example B2); settings: 250 g/ha, after about 18 days, rating scale 10=total damage, 0=no action
Excerpt: as §1

[8] = system: Digitaria; test: Microscreen, post-emergence herbicidal action (Example B3); settings: 250 g/ha, evaluated after 9 or 13 days, scale of eleven ratings (10=total damage, 0=no action)
Description: (§2) Example B3 Microscreen, Post-Emergence Herbicidal Action Monocotyledonous and dicotyledonous test plants are sown in sterilised standard soil in seed trays each having 96 cells. After 8 to 9 days' cultivation under controlled conditions in a climatic chamber (cultivation at 17/23° C.; 13 hours' light; 50-60% humidity; after application at 19/24° C.), the plants are treated with an aqueous spray solution of 1000 mg/l of the active ingredient used ([…]; incl. 10% DMSO as solvent). The plants are grown on in the climatic chamber until the test is evaluated after 9 or 13 days. The test is evaluated in accordance with a scale of eleven ratings (10=total damage, 0=no action). Ratings of from 10 to 7 (especially from 10 to 8) indicate very good to good herbicidal action.

[9] = system: Stellaria; test: as above; settings: 250 g/ha, evaluated after 9 or 13 days, scale of eleven ratings (10=total damage, 0=no action)
Description: as §2

[10] = system: Amaranthus; test: as above; settings: 250 g/ha, evaluated after 9 or 13 days, scale of eleven ratings (10=total damage, 0=no action)
Description: (§3) Example B3 Microscreen, Post-Emergence Herbicidal Action Monocotyledonous and dicotyledonous test plants are sown in sterilised standard soil in seed trays each having 96 cells. […] The plants are grown on in the climatic chamber until the test is evaluated after 9 or 13 days. The test is evaluated in accordance with a scale of eleven ratings (10=total damage, 0=no action). Ratings of from 10 to 7 (especially from 10 to 8) indicate very good to good herbicidal action.

[11] = system: Nasturtium; test: as above; settings: 250 g/ha, evaluated after 9 or 13 days, scale of eleven ratings (10=total damage, 0=no action)
Description: as §3

[12] = system: Solanum; test: as above; settings: 250 g/ha, evaluated after 9 or 13 days, scale of eleven ratings (10=total damage, 0=no action)
Description: as §3

| SMILES | Post-emergence action: Amaranthus [1] | Post-emergence action: Chenopodium [2] | Post-emergence action: Echinochloa [3] | Post-emergence action: Euphorbia [4] | Post-emergence action: Panicum [5] | Post-emergence action: Stellaria [6] | Post-emergence action: Xanthium [7] | Digitaria, herbicidal action rating [8] | Stellaria, herbicidal action rating [9] | Amaranthus, herbicidal action rating [10] | Nasturtium, herbicidal action rating [11] | Solanum, herbicidal action rating [12] |
| --- | --- | --- | --- | --- | --- | --- | --- | --- | --- | --- | --- | --- |
| COCCOc1nc(C(=O)C2=C(O)CCCC2=O)ccc1C(F)(F)F [Compound 1.003] | 9 | 10 | 8 | 6 | 8 | 10 | 9 | – | – | – | – | – |
| O=C1CCCC(O)=C1C(=O)c1ccc(C(F)(F)F)c(OC2CCOC2)n1 (stereo not drawn) [Compound 1.021] | 9 | 8 | 6 | 7 | 6 | 7 | 9 | – | – | – | – | – |
| CN(C)c1nc(C(=O)C2=C(O)CCCC2=O)ccc1C(F)(F)F [Compound 1.059] | – | – | – | – | – | – | – | 7 | 9 | 7 | 9 | 9 |
| O=C1CCCC(O)=C1C(=O)c1ccc(C(F)(F)F)c(-n2ccc(C(F)(F)F)n2)n1 [Compound 1.081] | 10 | 9 | 9 | 9 | 10 | 6 | 9 | – | – | – | – | – |
| CCC(=O)N(C)c1nc(C(=O)C2=C(O)CCCC2=O)ccc1C(F)(F)F [Compound 1.090] | 8 | 9 | 7 | – | 8 | 6 | 8 | – | – | – | – | – |
| C=C(OCC)c1nc(C(=O)C2=C(O)CCCC2=O)ccc1C(F)(F)F [Compound 1.189] | – | – | – | – | – | – | – | 7 | 8 | – | 9 | 9 |
| CC1=NOC(c2nc(C(=O)C3=C(O)CCCC3=O)ccc2C(F)(F)F)C1 (stereo not drawn) [Compound 1.203] | 8 | 9 | 8 | 7 | 9 | 7 | 8 | – | – | – | – | – |
| COCCOc1nc(C(=O)C2=C(O)C(C)(C)C(=O)C(C)(C)C2=O)ccc1C(F)(F)F [Compound 2.003] | 8 | 8 | 9 | 9 | 9 | 9 | 8 | – | – | – | – | – |
| CC1(C)C(=O)C(C(=O)c2ccc(C(F)(F)F)c(-n3ccc(C(F)(F)F)n3)n2)=C(O)C(C)(C)C1=O [Compound 2.080] | 9 | 6 | 9 | 9 | 9 | 7 | 9 | – | – | – | – | – |
| COc1nc(C(=O)C2=C(O)C(C)(C)C(=O)C(C)(C)C2=O)ccc1C(F)(F)F [Compound 2.094] | 3 | 9 | 8 | 8 | 8 | 9 | 7 | – | – | – | – | – |
| CCOc1nc(C(=O)C2=C(O)C(C)(C)C(=O)C(C)(C)C2=O)ccc1C(F)(F)F [Compound 2.095] | 9 | 8 | 9 | 9 | 9 | 5 | 9 | – | – | – | – | – |
| C=C(OCC)c1nc(C(=O)C2=C(O)C(C)(C)C(=O)C(C)(C)C2=O)ccc1C(F)(F)F [Compound 2.188] | 5 | 6 | 7 | 7 | 9 | 10 | 8 | – | – | – | – | – |
| CC1=NOC(c2nc(C(=O)C3=C(O)C(C)(C)C(=O)C(C)(C)C3=O)ccc2C(F)(F)F)C1 (stereo not drawn) [Compound 2.201] | 9 | 8 | 8 | 6 | 9 | 6 | 8 | – | – | – | – | – |
| CC1(C)C(=O)C(C(=O)c2ccc(C(F)(F)F)c(C#N)n2)=C(O)C(C)(C)C1=O [Compound 2.208] | 8 | 6 | 9 | 8 | 9 | 5 | 8 | – | – | – | – | – |
| O=C1CCC2(CC2)C(O)=C1C(=O)c1ccc(C(F)(F)F)c(N2CCOCC2)n1 [Compound 3.068] | 10 | 9 | 9 | 9 | 10 | 9 | 9 | – | – | – | – | – |
| CC1(C)CC(C)(C)C(O)=C(C(=O)c2ccc(C(F)(F)F)c(N3CCOCC3)n2)C1=O [Compound 3.075] | 2 | 9 | 7 | 7 | 5 | 8 | 8 | – | – | – | – | – |
| CC1(C)OC(C)(C)C(O)=C(C(=O)c2ccc(C(F)(F)F)c(N3CCOCC3)n2)C1=O [Compound 3.076] | 7 | 9 | 7 | 6 | 7 | 7 | 8 | – | – | – | – | – |
| N#CC1CC(=O)C(C(=O)c2ccc(C(F)(F)F)c(N3CCOCC3)n2)=C(O)C1 (stereo not drawn) [Compound 3.212] | 8 | 7 | 5 | 7 | 0 | 7 | 8 | – | – | – | – | – |
